Results as given in PMC12892976, “Alkylation-based optimization of antifungal FPPS inhibitors yields a potent, broad-spectrum lipophilic zoledronate derivative” (mBio, 2025).
Converted amounts (≈) assume the structure as drawn.

What was measured:
[1] = system: Aspergillus frankstonensis; experiment: checkerboard drug interaction (FICI, MICc);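 further: simplified diagonal checkerboard screen pairing antifungals with FPPS inhibitors, FICI calculated using the Loewe additivity model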
Procedure: (§1) Drug interactions between antifungals and FPPS inhibitors were investigated using a simplified checkerboard diagonal screening method ([45]). […] FICIs were determined according to the Loewe additivity model ([17]).

Lomentospora prolificans [2] = experiment: checkerboard drug interaction (FICI, MICc);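 further: simplified diagonal checkerboard screen pairing antifungals with FPPS inhibitors, FICI calculated under the Loewe additivity model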
Procedure: as §1

Cryptococcus gattii [3] = experiment: MIC broth microdilution (CLSI); format: cell-based; details: Cryptococcus gattii PNG27
Procedure: (§2) Antifungal susceptibility was determined by broth microdilution according to the CLSI guidelines described in M27-Ed4 ([16]).

Lomentospora prolificans [4] = experiment: MIC broth microdilution (CLSI); format: cell-based; details: Lomentospora prolificans 80-16-101-2445
Procedure: as §2

Aspergillus terreus = experiment: MIC broth microdilution (CLSI); format: cell-based; details: Aspergillus terreus 75-16-089-2500
Procedure: as §2

Cryptococcus gattii [5] = experiment: checkerboard drug interaction (FICI, MICc); format: cell-based;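 further: simplified diagonal checkerboard screen pairing antifungals with FPPS inhibitors, FICI computed under the Loewe additivity model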
Procedure: as §1

Aspergillus niger [6] = experiment: MIC broth microdilution (CLSI); format: cell-based; details: Aspergillus niger 111
Procedure: as §2

Candida dubliniensis = experiment: checkerboard drug interaction (FICI, MICc); format: cell-based;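 further: simplified diagonal checkerboard screen pairing antifungals with FPPS inhibitors, FICI calculated under the Loewe additivity model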
Procedure: as §1

Cryptococcus tetragattii = experiment: checkerboard drug interaction (FICI, MICc); format: cell-based;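 further: simplified diagonal checkerboard screen pairing antifungals with FPPS inhibitors, with FICI calculated under the Loewe additivity model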
Procedure: as §1

[7] = system: Cryptococcus deneoformans; experiment: checkerboard drug interaction (FICI, MICc); format: cell-based;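 further: simplified diagonal checkerboard screen pairing antifungals with FPPS inhibitors, FICI calculated under the Loewe additivity model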
Procedure: as §1

Paraphyton cookei = experiment: MIC broth microdilution (CLSI); format: cell-based; details: Paraphyton cookei R-639
Procedure: as §2

Pichia kudriavzevii = experiment: checkerboard drug interaction (FICI, MICc); format: cell-based;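 further: antifungal plus FPPS inhibitor interactions tested in a simplified diagonal checkerboard screen, with FICI calculated under the Loewe additivity model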
Procedure: as §1

Nannizzia gypsea = experiment: checkerboard drug interaction (FICI, MICc);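 further: simplified diagonal checkerboard screen pairing antifungals with FPPS inhibitors, FICI derived using the Loewe additivity model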
Procedure: as §1

Fusarium solani = experiment: MIC broth microdilution (CLSI); details: Fusarium solani 04-16-056-1862
Procedure: as §2

Epidermophyton floccosum = experiment: MIC broth microdilution (CLSI); format: cell-based; details: Epidermophyon floccosum R-113
Procedure: as §2

Mucor circinelloides = experiment: MIC broth microdilution (CLSI); format: cell-based; details: Mucor circinelloides 80-14-240-5007
Procedure: as §2

Aspergillus felis = experiment: MIC broth microdilution (CLSI); format: cell-based; details: Aspergillus felis IHE87256683D6
Procedure: as §2

Fusarium oxysporum = experiment: MIC broth microdilution (CLSI); format: cell-based; details: Fusarium oxysporum 07-200-3012
Procedure: as §2

Aspergillus niger [8] = experiment: checkerboard drug interaction (FICI, MICc); format: cell-based;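 further: simplified diagonal checkerboard screen pairing antifungals with FPPS inhibitors, FICI calculated under the Loewe additivity model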
Procedure: as §1

O=P(O)(O)C(O)(Cn1ccnc1)P(=O)(O)O [ZOL, zoledronate]
FICI ([1]; 5FC:ZOL): ≥4
FICI ([1]; AMB:ZOL): 2
FICI ([1]; CAS:ZOL): ≥4
FICI ([1]; FLC:ZOL): 0.56
FICI ([1]; ITR:ZOL): 1.25
FICI ([1]; KET:ZOL): 1
FICI ([1]; VOR:ZOL): 1.13
bisphosphonate MICc ([1]; ZOL with 5FC): 256
bisphosphonate MICc ([1]; ZOL with AMB): 128
bisphosphonate MICc ([1]; ZOL with CAS): 256
bisphosphonate MICc ([1]; ZOL with FLC): 8
bisphosphonate MICc ([1]; ZOL with ITR): 32
bisphosphonate MICc ([1]; ZOL with KET): 64
bisphosphonate MICc ([1]; ZOL with VOR): 16
FICI (Lomentospora prolificans [2]; 5FC:ZOL): 2.5
FICI (Lomentospora prolificans [2]; AMB:ZOL): 0.75
FICI (Lomentospora prolificans [2]; CAS:ZOL): 3
FICI (Lomentospora prolificans [2]; FLC:ZOL): 1.13
FICI (Lomentospora prolificans [2]; ITR:ZOL): 0.63
FICI (Lomentospora prolificans [2]; KET:ZOL): 1
FICI (Lomentospora prolificans [2]; VOR:ZOL): 1.06
bisphosphonate MICc (Lomentospora prolificans [2]; ZOL with 5FC): 256
bisphosphonate MICc (Lomentospora prolificans [2]; ZOL with AMB): 256
bisphosphonate MICc (Lomentospora prolificans [2]; ZOL with CAS): 512
bisphosphonate MICc (Lomentospora prolificans [2]; ZOL with FLC): 64
bisphosphonate MICc (Lomentospora prolificans [2]; ZOL with ITR): 64
bisphosphonate MICc (Lomentospora prolificans [2]; ZOL with KET): 256
bisphosphonate MICc (Lomentospora prolificans [2]; ZOL with VOR): 32
MIC / MEC (Cryptococcus gattii [3]): 128 µg/mL (≈ 470 µM)
MIC / MEC (Lomentospora prolificans [4]): >256 µg/mL
MIC / MEC (Aspergillus terreus): 128 µg/mL (≈ 470 µM)
FICI (Cryptococcus gattii [5]; 5FC:ZOL): 1.25
FICI (Cryptococcus gattii [5]; AMB:ZOL): 1.5
FICI (Cryptococcus gattii [5]; CAS:ZOL): ≥4
FICI (Cryptococcus gattii [5]; FLC:ZOL): 0.38
FICI (Cryptococcus gattii [5]; ITR:ZOL): 0.63
FICI (Cryptococcus gattii [5]; KET:ZOL): 1.03
FICI (Cryptococcus gattii [5]; VOR:ZOL): 1.25
bisphosphonate MICc (Cryptococcus gattii [5]; ZOL with 5FC): 128
bisphosphonate MICc (Cryptococcus gattii [5]; ZOL with AMB): 64
bisphosphonate MICc (Cryptococcus gattii [5]; ZOL with CAS): 256
bisphosphonate MICc (Cryptococcus gattii [5]; ZOL with FLC): 32
bisphosphonate MICc (Cryptococcus gattii [5]; ZOL with ITR): 16
bisphosphonate MICc (Cryptococcus gattii [5]; ZOL with KET): 4
bisphosphonate MICc (Cryptococcus gattii [5]; ZOL with VOR): 32
MIC / MEC (Aspergillus niger [6]): >256 µg/mL
FICI (Candida dubliniensis; 5FC:ZOL): 0.56
FICI (Candida dubliniensis; AMB:ZOL): 2
FICI (Candida dubliniensis; CAS:ZOL): 0.2
FICI (Candida dubliniensis; FLC:ZOL): 0.42
FICI (Candida dubliniensis; ITR:ZOL): 0.5
FICI (Candida dubliniensis; KET:ZOL): 0.38
FICI (Candida dubliniensis; VOR:ZOL): 0.46
bisphosphonate MICc (Candida dubliniensis; ZOL with 5FC): 0.25
bisphosphonate MICc (Candida dubliniensis; ZOL with AMB): 4
bisphosphonate MICc (Candida dubliniensis; ZOL with CAS): 0.125
bisphosphonate MICc (Candida dubliniensis; ZOL with FLC): 1
bisphosphonate MICc (Candida dubliniensis; ZOL with ITR): 1
bisphosphonate MICc (Candida dubliniensis; ZOL with KET): 1
bisphosphonate MICc (Candida dubliniensis; ZOL with VOR): 1
FICI (Cryptococcus tetragattii; 5FC:ZOL): 1.13
FICI (Cryptococcus tetragattii; AMB:ZOL): 1.25
FICI (Cryptococcus tetragattii; CAS:ZOL): 2.5
FICI (Cryptococcus tetragattii; FLC:ZOL): 0.5
FICI (Cryptococcus tetragattii; ITR:ZOL): 2.06
FICI (Cryptococcus tetragattii; KET:ZOL): 0.75
FICI (Cryptococcus tetragattii; VOR:ZOL): 1.46
bisphosphonate MICc (Cryptococcus tetragattii; ZOL with 5FC): 64
bisphosphonate MICc (Cryptococcus tetragattii; ZOL with AMB): 64
bisphosphonate MICc (Cryptococcus tetragattii; ZOL with CAS): 32
bisphosphonate MICc (Cryptococcus tetragattii; ZOL with FLC): 16
bisphosphonate MICc (Cryptococcus tetragattii; ZOL with ITR): 4
bisphosphonate MICc (Cryptococcus tetragattii; ZOL with KET): 16
bisphosphonate MICc (Cryptococcus tetragattii; ZOL with VOR): 32
FICI ([7]; 5FC:ZOL): 0.38
FICI ([7]; AMB:ZOL): 0.63
FICI ([7]; CAS:ZOL): 1
FICI ([7]; FLC:ZOL): 0.5
FICI ([7]; ITR:ZOL): 2.09
FICI ([7]; KET:ZOL): 0.37
FICI ([7]; VOR:ZOL): 1.54
bisphosphonate MICc ([7]; ZOL with 5FC): 16
bisphosphonate MICc ([7]; ZOL with AMB): 16
bisphosphonate MICc ([7]; ZOL with CAS): 64
bisphosphonate MICc ([7]; ZOL with FLC): 32
bisphosphonate MICc ([7]; ZOL with ITR): 1
bisphosphonate MICc ([7]; ZOL with KET): 16
bisphosphonate MICc ([7]; ZOL with VOR): 64
MIC / MEC (Paraphyton cookei): 128 µg/mL (≈ 470 µM)
FICI (Pichia kudriavzevii; 5FC:ZOL): 1.13
FICI (Pichia kudriavzevii; AMB:ZOL): 0.63
FICI (Pichia kudriavzevii; CAS:ZOL): 0.56
FICI (Pichia kudriavzevii; FLC:ZOL): 0.67
FICI (Pichia kudriavzevii; ITR:ZOL): 0.5
FICI (Pichia kudriavzevii; KET:ZOL): 0.38
FICI (Pichia kudriavzevii; VOR:ZOL): 2.25
bisphosphonate MICc (Pichia kudriavzevii; ZOL with 5FC): 256
bisphosphonate MICc (Pichia kudriavzevii; ZOL with AMB): 32
bisphosphonate MICc (Pichia kudriavzevii; ZOL with CAS): 16
bisphosphonate MICc (Pichia kudriavzevii; ZOL with FLC): 128
bisphosphonate MICc (Pichia kudriavzevii; ZOL with ITR): 64
bisphosphonate MICc (Pichia kudriavzevii; ZOL with KET): 64
bisphosphonate MICc (Pichia kudriavzevii; ZOL with VOR): 64
FICI (Nannizzia gypsea; 5FC:ZOL): 3
FICI (Nannizzia gypsea; AMB:ZOL): 0.75
FICI (Nannizzia gypsea; CAS:ZOL): 0.75
FICI (Nannizzia gypsea; FLC:ZOL): 0.31
FICI (Nannizzia gypsea; ITR:ZOL): 0.38
FICI (Nannizzia gypsea; KET:ZOL): 0.19
FICI (Nannizzia gypsea; VOR:ZOL): 0.28
bisphosphonate MICc (Nannizzia gypsea; ZOL with 5FC): 256
bisphosphonate MICc (Nannizzia gypsea; ZOL with AMB): 64
bisphosphonate MICc (Nannizzia gypsea; ZOL with CAS): 64
bisphosphonate MICc (Nannizzia gypsea; ZOL with FLC): 16
bisphosphonate MICc (Nannizzia gypsea; ZOL with ITR): 32
bisphosphonate MICc (Nannizzia gypsea; ZOL with KET): 32
bisphosphonate MICc (Nannizzia gypsea; ZOL with VOR): 8
MIC / MEC (Fusarium solani): 256 µg/mL (≈ 941 µM)
MIC / MEC (Epidermophyton floccosum): 64 µg/mL (≈ 235 µM)
MIC / MEC (Mucor circinelloides): 64 µg/mL (≈ 235 µM)
MIC / MEC (Aspergillus felis): >256 µg/mL
MIC / MEC (Fusarium oxysporum): >256 µg/mL
FICI (Aspergillus niger [8]; 5FC:ZOL): 3
FICI (Aspergillus niger [8]; AMB:ZOL): 0.98
FICI (Aspergillus niger [8]; CAS:ZOL): 2
FICI (Aspergillus niger [8]; FLC:ZOL): 2
FICI (Aspergillus niger [8]; ITR:ZOL): 0.56
FICI (Aspergillus niger [8]; KET:ZOL): 1
FICI (Aspergillus niger [8]; VOR:ZOL): 1.02
bisphosphonate MICc (Aspergillus niger [8]; ZOL with 5FC): 512
bisphosphonate MICc (Aspergillus niger [8]; ZOL with AMB): 8
bisphosphonate MICc (Aspergillus niger [8]; ZOL with CAS): 512
bisphosphonate MICc (Aspergillus niger [8]; ZOL with FLC): 512
bisphosphonate MICc (Aspergillus niger [8]; ZOL with ITR): 32
